Here are results for six compounds from patent publication US20170029451A1, “BRANCHED CHAIN ACYCLIC NUCLEOSIDE PHOSPHONATE ESTERS AND METHODS OF SYNTHESIS AND USES THEREOF” (CHIMERIX, INC., priority 2013, published 2017).

SMILES strings stand for the structures. Read-outs that look alike come from different tables or passages of the source. A value given as a limit tells only on which side of the number the result lay.

One data set relates to Epstein-Barr virus. Kind of data set: DNA Hybridization Assay for EBV in Akata cells. Particulars: human gammaherpesvirus 4, read-out: Efficacy DNA Hybridization Assay (EC50). Type of data set: cell-based. The procedure: Akata cells latently infected with EBV were obtained from John Sixbey. The GS strain of HHV-6A was obtained through the NIH AIDS Research and Reference Reagent Program.
Each experiment that evaluated the antiviral activity of the compounds included both positive and negative control compounds to ensure the performance of each assay. Concurrent assessment of cytotoxicity was also performed for each study at equivalent levels of compound exposure. When sufficient material was available, multiple assays were performed for each compound evaluation to obtain statistical data.
Assays for EBV were performed in Akata cells that were induced to undergo a lytic infection with 50 μg/ml of a goat anti-human IgG antibody by standard methods. Experimental compounds were diluted in round bottom 96-well plates to yield concentrations ranging from 20 to 0.016 μM. Akata cells were added to the plates at a concentration of 4×10^4 cells per well and incubated for 72 h. For HHV-6 assays, compounds were serially diluted in 96-well plates then 1×10^4 uninfected HSB-2 or Molt-3 cells were added to each well. Infection was initiated by adding HHV-6A infected HSB-2 cells, or HHV-6B infected Molt-3 cells, at a ratio of approximately 1 infected cell for every 10 uninfected HSB-2 cells or Molt-3 cells respectively and incubated for 7 d at 37° C. […]

Data set [1] can be described thus: in vitro. To be noted: human.
Data set [2] deals with Herpes Simplex Virus 1 (Strain E-377). Kind of data set: Plaque reduction assay, HSV-1 in human foreskin fibroblast cells. Type of data set: cell-based. Particulars: Human alphaherpesvirus 1; Strain E-377, human foreskin fibroblast cells. Background: Plaque reduction counts the foci of infection that form in a cell layer.
Data set [3] can be described thus: in vitro. To be noted: human. The source holds these as a separate data set.
For data set [4], the system named is human foreskin fibroblast cells. Kind of data set: Neutral red cytotoxicity assay in human foreskin fibroblast cells. To be noted: read-out: VACV CC50, μm, parallel to VACV assay (second printing of Table 4).
Data set [5] relates to Vaccinia Virus (Strain Copenhagen). Kind of data set: microbe, parasite or virus in culture. The class given is cell-based. To be noted: Orthopoxvirus vaccinia, Fibroblast, read-out: VACV EC50, μM.
Data set [6] relates to Cowpox Virus (Strain Brighton). Kind of data set: microbe, parasite or virus in culture. The class given is cell-based. To be noted: Fibroblast, read-out: CPXV EC50, μM.
Data set [7] is described as follows: Cytotoxicity (CC50) in MT4 cells. Type of data set: cell-based. Particulars: human. The procedure:
Costar 96-well tissue culture plates were seeded with 5,000 MT4 cells (NIH AIDS Reagents Program)/well in RPMI (Lonza, Cat 12-11F) containing 10% Hyclone Standard Fetal Bovine Serum (FBS, Cat 5H30088.03), 1% Hyclone Penicillin and Streptomycin (Cat SV30010), and 2 mM Lonza L-Glutamine (Cat 17-605E). Outer wells were not used to minimize the edge-effect produced by extended incubations. Serial dilutions of test compounds were added to the cells and plates were incubated for 6 days at 37° C. in 5% CO2. After 6 days of incubation 40 μL of Cell Titer 96® Aqueous MTS Reagent (Promega, G111) was added as directed by manufacturer to the 200 μL media in each well and incubated at 37° C. until the untreated-cell controls developed an 490 nm absorbance between 1.1 and 1.8. The final absorbance readings were read using a BioTek Synergy 2, and Gen 5 software (BioTek Instruments, Inc.) was used to calculate the concentration which inhibited MT4 cells by 50% (CC50).

In data set [8] the test system is Human Cytomegalovirus (HCMV). Kind of data set: HCMV EC50 in MRC-5 cells (qPCR of intracellular CMV DNA). The class given is cell-based. Particulars: Human betaherpesvirus 5, MRC5. The procedure: Costar 96-well tissue culture plates were seeded with 20,000 MRC-5 cells/well in EMEM containing 2% Hyclone Standard Fetal Bovine Serum and 1% Hyclone Penicillin and Streptomycin. Outer wells were not used to minimize the edge-effect produced by extended incubations. Cells were inoculated with HCMV at an MOI of 0.01. Serial dilutions of test compounds were added to the cells and plates were incubated for 7 days at 37° C. in 5% CO2. […] Culture medium was gently removed from infected cells after the 7-day incubation. The cells were rinsed twice with ice-cold PBS, and then freeze/thawed once. Each well was incubated with 200 μL lysis buffer for 2 hours at 55° C. Lysis buffer included 0.5 mg/mL protease K, 50 mM KCl, 10 mM Tris-Cl pH 8.0, 2.5 mM MgCl2, 0.45% IGEPAL, and 0.45% Tween-20 dissolved in DEPC-treated water. Intracellular CMV DNA was measured by quantitative polymerase chain reaction (qPCR) using forward and reverse HCMV PCR primers, and a FAM-labeled probe. Absolute quantitation of viral copy number was performed using a standard curve with dilutions of a HCMV DNA amplicon containing sequences homologous to the amplified fragment. The following qPCR amplification conditions were used: 1 cycle at 95° C. for 10 minutes, followed by 45 cycles of 95° C. for 15 seconds and 60° C. for 60 seconds. The qPCR reactions were performed using an Applied Biosystems 7500 real Time PCR System. Gen 5 software (BioTek Instruments, Inc.) was used to calculate the concentration which inhibited the viral DNA levels of HCMV-infected MRC-5 cells by 50% (EC50).
In general terms: Real-time PCR tracks product formation cycle by cycle.

Another data set concerns HCMV (Strain AD169). Kind of data set: Plaque reduction assay, HCMV AD169 in human foreskin fibroblast cells. Type of data set: cell-based, Human Cytomegalovirus (HCMV). To be noted: Human betaherpesvirus 5, AD169, Fibroblast.
For data set [9], the system named is HCMV UL54 resistant mutant D542E (HDP-CDV^R). Kind of data set: microbe, parasite or virus in culture. To be noted: Human betaherpesvirus 5, Fibroblast. The class given is cell-based, Human Cytomegalovirus (HCMV).
For a further data set, the system named is BKV (Gardner strain). Kind of data set: BKV EC50 in Vero cells (qPCR of supernatant BKV DNA). The class given is cell-based, BK virus (BKV). Particulars: Betapolyomavirus hominis; BKV in Vero cells (Table 7); read-out: BKV EC50. The procedure: Costar 96-well tissue culture plates were seeded with 10,000 Vero cells/well in DMEM containing 2% Hyclone Standard Fetal Bovine Serum (FBS, Cat 5H30088.03) and 1% Hyclone Penicillin and Streptomycin. Outer wells were not used to minimize the edge-effect produced by extended incubations. Cells were inoculated with 115 BKV DNA copies/cell (ATCC, Gardner strain). Serial dilutions of test compounds were added to the cells and plates were incubated for 10 days at 37° C. in 5% CO2. After the 10-day incubation, 50 μL supernatant was mixed with 50 μL 2× lysis buffer that provided a final concentration 0.5 mg/mL protease K, 50 mM KCl, 10 mM Tris-Cl pH 8.0, 2.5 mM MgCl2, 0.45% IGEPAL, and 0.45% Tween-20 dissolved in DEPC-treated water. Each plate was incubated for 2 hours at 55° C. Supernatant BKV DNA was measured by quantitative polymerase chain reaction (qPCR) using forward and reverse BKV PCR primers, and a FAM-labeled probe. Absolute quantitation of viral copy number was performed using a standard curve with dilutions of a BKV DNA amplicon containing sequences homologous to the amplified fragment. The following qPCR amplification conditions were used: 1 cycle at 95° C. for 10 minutes, followed by 45 cycles of 95° C. for 15 seconds and 60° C. for 60 seconds. The qPCR reactions were performed using an Applied Biosystems 7500 real Time PCR System. Gen 5 software (BioTek Instruments, Inc.) was used to calculate the concentration which inhibited the viral DNA levels of BKV-infected Vero cells by 50% (EC50).

Data set [10] relates to HCMV UL54 resistant mutant GDG^RP53. Kind of data set: microbe, parasite or virus in culture. Type of data set: cell-based, Human Cytomegalovirus (HCMV). Particulars: Human betaherpesvirus 5, Fibroblast.
The test system of data set [11] is HCMV UL54 resistant mutant 4955^R. Kind of data set: microbe, parasite or virus in culture. Type of data set: cell-based, Human Cytomegalovirus (HCMV). To be noted: Human betaherpesvirus 5, Fibroblast.
Data set [12] in a line: in vitro. Particulars: dog.
Data set [13] concerns Influenza virus A/CA/10/2009. Kind of data set: microbe, parasite or virus in culture. Type of data set: cell-based. Particulars: unidentified influenza virus, MDCK, read-out: A/CA/10/2009 (EC50, μM).
For data set [14], the system named is Influenza virus B/FL/4/2006. Kind of data set: microbe, parasite or virus in culture. The class given is cell-based. Particulars: unidentified influenza virus, MDCK, read-out: B/FL/4/2006 (EC50, μM).
[15] abbreviates: Mean XC50 (Table 9), read-out: MT4 cytotoxicity CC50.
Where [16] appears, read: Mean XC50 (Table 9), read-out: HCMV EC50.

On to `Nc1nc2c(ncn2COCCO)c(=O)[nH]1` [Acyclovir, reference compound], for which the EC50 in the data set with Epstein-Barr virus was 7000 nM; in data set [2], 2200 nM. The CC50 in the data set “in vitro [1]” is greater than 100000 nM; in “in vitro [3]” it was greater than 100 µM.

With `Nc1ccn(C[C@@H](CO)OCP(=O)(O)O)c(=O)n1` [Cidofovir, reference compound], the CC50 was greater than 300000 nM in data set [4] and greater than 300 µM in the data set “in vitro [3]” (CPXV CC50, μM, Human Foreskin Fibroblast Cells, parallel to CPXV assay). Also, the EC50 in data set [5] came out at 22.4 µM; in [6], 30.5 µM.

For `CCCCCCCCCCCCCCCCOCCCOP(=O)(O)CO[C@H](CO)Cn1ccc(=O)[nH]c1=O` [Compound 24], the CC50 at 6 days in [7] (setting [15]) came to 13500 nM. For the same compound, the EC50 in data set [8] (setting [16]) is 8 nM.

Consider `Nc1nc(O)c2ncn(COC(CO)CO)c2n1` [Ganciclovir, reference compound], for which the CC50 in the data set “in vitro [3]” was greater than 100 µM. In addition, in the data set with HCMV (Strain AD169) (Strain AD169, human foreskin fibroblast cells, read-out: HCMV EC50), the EC50 turned out to be 1500 nM.

`CCCCCCCCCCCCCCCCOCCCOP(=O)(O)CO[C@H](CO)Cn1ccc(N)nc1=O` [HDP-CDV, Hexadecyloxypropyl-Cidofovir, reference compound]: the CC50 at 6 days in data set [7] (MT4 cells (Table 7), read-out: MT4 CC50) came out at 60 nM; in data set [7] (setting [15]), 60 nM. Besides, the EC50 in data set [9] (read-out: EC50 μM, Virus D542E (HDP-CDV^R), human foreskin fibroblast cells) is 0.0295 µM; in the data set with BKV (Gardner strain), 18 nM; in data set [10] (read-out: EC50 μM, Virus GDG^RP53, human foreskin fibroblast cells), 0.0053 µM; in [11] (read-out: EC50 μM, Virus 4955^R, human foreskin fibroblast cells) it was 0.0013 µM; in the data set with HCMV (Strain AD169) (Virus AD169, human foreskin fibroblast cells (Table 3), read-out: EC50), 1 nM; in [8] (HCMV in MRC-5 cells (Table 7), read-out: CMV EC50), 0.4 nM. Also, the EC50 in data set [8] (setting [16]) was 0.3 nM. The figures for the EC90 in data set [9] (read-out: EC90 μM), in data set [10] (read-out: EC90 μM) and in data set [11] (read-out: EC90 μM) were 0.153 µM, 0.0316 µM and 0.006 µM, respectively.

As to `CCOC(=O)C1=C[C@@H](OC(CC)CC)[C@H](NC(C)=O)[C@@H](N)C1` [Oseltamivir, reference compound], in “in vitro [12]”, the CC50 is greater than 20000 nM. Besides, the EC50 was found to be 0.17 µM in data set [13] and 16.2 µM in data set [14].
